Legend:
PCSK9 = PCSK9 (Homo sapiens, UniProt Q8NBP7); test: BODIPY-LDL uptake assay in HepG2 cells; type: cell-based; details: 5 μg/ml PCSK9, BODIPY-LDL
Method in brief: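 Compounds pre-incubated 60 min with 5 μg/ml PCSK9 (0.2% DMSO), then added to HepG2 cells for 16 h; 1 μg/ml BODIPY-LDL added in serum-free medium for 5 h. Fluorescence (Ex 485/Em 520 nm) normalized to protein; PCSK9-only wells = 0%, no-PCSK9 wells = 100% uptake, giving percent increase in LDL uptake.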

High Fat Diet C57 Mice = test: LDL-C lowering activity in high fat diet C57 mice; type: in vivo; details: Mus musculus, po, 168 h; C57 mice on high fat diet; 30 mg/Kg orally once a day, 7 days treatment, blood on day 7; read-out: % Change Vs Vehicle Control in LDLc
Experimental: LDL-C Lowering Activity—in High Fat Diet C57 Mice
The in-vivo LDL-c lowering for test compound was tested in C57 mice which were kept on high fat diet for 4 weeks and the blood was collected by retro-orbital sinus puncture method under light ether anesthesia on day 0 (pretreatment). Animal are grouped based on LDL-c levels, after that 7 days treatment with vehicle or test compound orally at a dose of 30 mpk dose once a day was given. On completion of treatment on day 7 of the treatment the blood was collected for LDL-c and TC levels measurement.

Chain of PCSK9 (Q8NBP7 153-692): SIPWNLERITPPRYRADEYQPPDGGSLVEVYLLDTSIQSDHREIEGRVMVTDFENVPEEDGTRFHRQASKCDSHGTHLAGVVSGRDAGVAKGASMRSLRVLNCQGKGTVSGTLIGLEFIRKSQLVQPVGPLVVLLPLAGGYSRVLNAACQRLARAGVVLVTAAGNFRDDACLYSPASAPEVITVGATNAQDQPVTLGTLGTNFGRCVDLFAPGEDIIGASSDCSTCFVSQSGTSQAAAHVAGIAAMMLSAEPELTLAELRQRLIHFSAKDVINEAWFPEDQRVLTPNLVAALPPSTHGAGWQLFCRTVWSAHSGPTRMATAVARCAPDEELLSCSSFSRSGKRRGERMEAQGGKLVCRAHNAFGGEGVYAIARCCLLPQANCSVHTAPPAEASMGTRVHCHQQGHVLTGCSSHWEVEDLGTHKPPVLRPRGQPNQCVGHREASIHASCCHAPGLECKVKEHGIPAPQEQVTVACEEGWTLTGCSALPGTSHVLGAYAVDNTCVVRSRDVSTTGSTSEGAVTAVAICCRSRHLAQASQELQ

## O=C(c1cccc(C2(O)COC2)c1)N1CCN(c2ccc(C(F)(F)F)cn2)CC1 [Example 220, (3-(3-hydroxyoxetan-3-yl)phenyl)(4-(5-(trifluoromethyl)pyridin-2-yl)piperazin-1-yl)methanone]
PCSK9; 1 μM test compound
  % increase in LDL Uptake: 8%
PCSK9; 10 μM test compound
  % increase in LDL Uptake: 31%
PCSK9; 30 μM test compound
  % increase in LDL Uptake: 56%
High Fat Diet C57 Mice
  change in vivo at 30 mg/kg: -16%
